In patent US10174035B2, “6-morpholinyl-2-pyrazolyl-9H-purine derivatives and their use as PI3K inhibitors” (Daiichi Sankyo Company, Limited, priority 2015, dated 2019) one finds IC50 data, which are given here for 30 compounds.

recombinant PI3K δ enzyme, sequence (O00329 whole entry, species assumed): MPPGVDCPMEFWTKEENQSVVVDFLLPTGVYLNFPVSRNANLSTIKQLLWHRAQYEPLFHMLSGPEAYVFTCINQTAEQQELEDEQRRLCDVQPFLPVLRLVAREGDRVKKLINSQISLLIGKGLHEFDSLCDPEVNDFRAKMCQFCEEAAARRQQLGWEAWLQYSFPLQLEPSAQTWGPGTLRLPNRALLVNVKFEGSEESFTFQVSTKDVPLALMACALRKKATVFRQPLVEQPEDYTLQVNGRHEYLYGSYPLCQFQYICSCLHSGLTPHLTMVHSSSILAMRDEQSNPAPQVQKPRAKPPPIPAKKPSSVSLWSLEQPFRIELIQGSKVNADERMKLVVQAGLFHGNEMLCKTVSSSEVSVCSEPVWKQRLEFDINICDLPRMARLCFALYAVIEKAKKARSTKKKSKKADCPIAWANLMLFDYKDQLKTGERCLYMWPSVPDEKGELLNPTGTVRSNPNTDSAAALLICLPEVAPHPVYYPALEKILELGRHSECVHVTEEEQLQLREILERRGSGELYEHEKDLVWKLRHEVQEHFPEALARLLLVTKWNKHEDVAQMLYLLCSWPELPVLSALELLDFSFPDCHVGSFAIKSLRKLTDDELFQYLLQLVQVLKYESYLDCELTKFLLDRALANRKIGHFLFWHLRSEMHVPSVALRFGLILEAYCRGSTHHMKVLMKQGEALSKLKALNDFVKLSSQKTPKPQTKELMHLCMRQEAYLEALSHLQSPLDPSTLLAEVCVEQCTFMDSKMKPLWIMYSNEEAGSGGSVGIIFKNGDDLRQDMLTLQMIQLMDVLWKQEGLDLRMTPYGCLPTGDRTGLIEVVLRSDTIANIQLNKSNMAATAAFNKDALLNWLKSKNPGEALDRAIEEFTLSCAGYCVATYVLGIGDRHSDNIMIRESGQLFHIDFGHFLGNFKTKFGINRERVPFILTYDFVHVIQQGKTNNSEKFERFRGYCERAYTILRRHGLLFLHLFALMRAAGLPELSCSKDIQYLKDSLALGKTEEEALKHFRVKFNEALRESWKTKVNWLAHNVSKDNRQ
recombinant PI3K δ enzyme, sequence (P27986 whole entry partner, species assumed): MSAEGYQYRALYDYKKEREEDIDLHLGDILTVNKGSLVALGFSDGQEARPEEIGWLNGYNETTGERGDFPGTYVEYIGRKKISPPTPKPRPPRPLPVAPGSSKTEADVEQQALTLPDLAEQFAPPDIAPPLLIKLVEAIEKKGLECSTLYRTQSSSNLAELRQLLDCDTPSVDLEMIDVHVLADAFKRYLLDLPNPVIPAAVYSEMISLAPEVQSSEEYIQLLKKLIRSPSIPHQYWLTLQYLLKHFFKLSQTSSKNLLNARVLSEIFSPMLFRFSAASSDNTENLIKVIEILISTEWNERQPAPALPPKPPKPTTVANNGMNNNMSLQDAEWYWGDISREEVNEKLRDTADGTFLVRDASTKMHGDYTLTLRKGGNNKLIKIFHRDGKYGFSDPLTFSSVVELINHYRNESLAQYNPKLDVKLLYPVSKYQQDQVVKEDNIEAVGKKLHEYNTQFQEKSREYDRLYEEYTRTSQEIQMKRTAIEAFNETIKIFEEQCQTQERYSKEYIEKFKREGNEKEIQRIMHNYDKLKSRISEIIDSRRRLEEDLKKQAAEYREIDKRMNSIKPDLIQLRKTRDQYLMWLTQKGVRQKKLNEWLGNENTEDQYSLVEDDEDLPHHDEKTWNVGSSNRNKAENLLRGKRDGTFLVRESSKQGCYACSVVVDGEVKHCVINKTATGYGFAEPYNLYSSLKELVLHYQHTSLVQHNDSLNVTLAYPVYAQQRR

For this test, the target named is recombinant PI3K δ enzyme (Homo sapiens (Human), UniProt O00329). The test can be described thus: In vitro enzyme assay (Kinase-Glo luminescent kinase assay), PI3Kδ. Format: biochemical. The protocol:
The Kinase-Glo luminescent kinase assay kit (from Promega) was used to measure kinase activity. In this assay, amount of ATP remaining in solution following a kinase reaction is measured. The effect of compounds on PI3Kδ inhibition was carried out by adding 2.29 μg/ml of recombinant PI3K δ enzyme (Proteros, Germany) to reaction mixture containing assay buffer (50 mM HEPES, pH 7.4, 50 mM NaCl, 0.05% CHAPS) supplemented with 10 mM MgCl2, 5 mM DTT, 60 μM Phosphatidyl inositol bisphosphate (PIP2) and 10 μM ATP in the absence or presence of different concentrations of the compounds in a final volume of 15 μl/well, in a 384 well plate. The reaction mixture was incubated for 2 hours at room temperature. At the end of incubation period the equal volume of Kinase-Glo plus (Promega, V3772), was added per well and the luminescence was measured after incubating for 10 minutes at room temperature in dark. Results were calculated by measuring the luminescence units of test samples to blanks containing no enzyme.
The compounds of the present invention were tested for their selectivity for PI3Kδ over PI3Kα, PI3Kβ and PI3Kγ following the above assay using specific recombinant enzymes (Proteros, Germany) for each kinase. Assay condition of kinase assay (PI3Kα, PI3Kβ, PI3Kγ and PI3Kδ) was as follows. Enzyme: 2.29 μg/mL; ATP: 10 μM; PIP2 substrate: 60 μM and Reaction Time: 2 hours.
(Kinase-Glo measures the ATP left after a reaction by luminescence.)
What is called IC50 is the concentration at which inhibition is half-maximal. With `Cn1cc(-c2nc(N3CCOCC3)c3nc(C(=O)N4CCN(C(=O)Cc5cnccn5)CC4)[nH]c3n2)cn1` [compound 29, 1-(4-{[2-(1-Methyl-1H-pyrazol-4-yl)-6-(morpholin-4-yl)-9H-purin-8-yl]carbonyl}piperazin-1-yl)-2-(pyrazin-2-yl)ethanone], the IC50 was found to be 140 nM. For `Cn1cc(-c2nc(N3CCOCC3)c3nc(C(=O)N4CCn5ccnc5C4)[nH]c3n2)cn1` [compound 30, 5,6-Dihydroimidazo[1,2-a]pyrazin-7(8H)-yl[2-(1-methyl-1H-pyrazol-4-yl)-6-(morpholin-4-yl)-9H-purin-8-yl]methanone] the value was 627 nM; for `Cn1cc(-c2nc(N3CCOCC3)c3nc(C(=O)N4CCNC(=O)C4)[nH]c3n2)cn1` [compound 31, 4-{[2-(1-Methyl-1H-pyrazol-4-yl)-6-(morpholin-4-yl)-9H-purin-8-yl]carbonyl}piperazin-2-one], 465 nM; for `Cn1cc(-c2nc(N3CCOCC3)c3nc(C(=O)N4CCN(c5ccccc5)CC4)[nH]c3n2)cn1` [compound 32, [2-(1-Methyl-1H-pyrazol-4-yl)-6-(morpholin-4-yl)-9H-purin-8-yl](4-phenylpiperazin-1-yl)methanone], 56 nM. Turning to `Cn1cc(-c2nc(N3CCOCC3)c3nc(C(=O)NC4CCCCC4)[nH]c3n2)cn1` [compound 33, N-cyclohexyl-2-(1-methyl-1H-pyrazol-4-yl)-6-(morpholin-4-yl)-9H-purine-8-carboxamide], the IC50 was 366 nM. With `Cn1cc(-c2nc(N3CCOCC3)c3nc(C(=O)N4CCN(S(C)(=O)=O)CC4)[nH]c3n2)cn1` [compound 34, [2-(1-Methyl-1H-pyrazol-4-yl)-6-(morpholin-4-yl)-9H-purin-8-yl][4-(methylsulfonyl)piperazin-1-yl]methanone], the IC50 came out at 305 nM. For the compound `Cn1cc(-c2nc(N3CCOCC3)c3nc(C(=O)N4CCC(c5ccccc5)CC4)[nH]c3n2)cn1` [compound 35, [2-(1-Methyl-1H-pyrazol-4-yl)-6-(morpholin-4-yl)-9H-purin-8-yl](4-phenylpiperidin-1-yl)methanone], the IC50 came to 17 nM. Regarding `Cn1cc(-c2nc(N3CCOCC3)c3nc(C(=O)NCC4CCCCC4)[nH]c3n2)cn1` [compound 36, N-(Cyclohexylmethyl)-2-(1-methyl-1H-pyrazol-4-yl)-6-(morpholin-4-yl)-9H-purine-8-carboxamide], the IC50 was found to be 15 nM. Regarding `CC(=O)N[C@H]1CCN(C(=O)c2nc3c(N4CCOCC4)nc(-c4cnn(C)c4)nc3[nH]2)C1` [compound 37, N-[(3S)-1-{[2-(1-methyl-1H-pyrazol-4-yl)-6-(morpholin-4-yl)-9H-purin-8-yl]carbonyl}pyrrolidin-3-yl]acetamide], the IC50 stood at 31 nM. `Cn1cc(-c2nc(N3CCOCC3)c3nc(C(=O)N4CC[C@@H](NS(C)(=O)=O)C4)[nH]c3n2)cn1` [compound 38, N-[(3R)-1-{[2-(1-methyl-1H-pyrazol-4-yl)-6-(morpholin-4-yl)-9H-purin-8-yl]carbonyl}pyrrolidin-3-yl]methanesulfonamide]: the 50% inhibitory concentration (IC50) was 20 nM. For the compound `CC(=O)N1CCN(C(=O)c2nc3c(N4CCOCC4)nc(-c4cnn(C)c4)nc3[nH]2)CC1` [compound 39, 1-(4-{[2-(1-Methyl-1H-pyrazol-4-yl)-6-(morpholin-4-yl)-9H-purin-8-yl]carbonyl}piperazin-1-yl)ethanone], the IC50 worked out at 26 nM. In the case of `Cc1c(-c2nc(N3CCOCC3)c3nc(C(=O)N4CCC(N5CCOCC5)CC4)[nH]c3n2)cnn1C` [compound 40, [2-(1,5-Dimethyl-1H-pyrazol-4-yl)-6-(morpholin-4-yl)-9H-purin-8-yl][4-(morpholin-4-yl)piperidin-1-yl]methanone], the IC50 turned out to be 28 nM. For `Cn1cc(-c2nc(N3CCOCC3)c3nc(C(=O)N4CCN(C(=O)OC(C)(C)C)CC4)[nH]c3n2)cn1` [compound 43, Tert-butyl 4-{[2-(1-methyl-1H-pyrazol-4-yl)-6-(morpholin-4-yl)-9H-purin-8-yl]carbonyl}piperazine-1-carboxylate], the concentration for half-maximal inhibition (IC50) turned out to be 57 nM. Then `CN(C)[C@H]1CCN(C(=O)c2nc3c(N4CCOCC4)nc(-c4cnn(C)c4)nc3[nH]2)C1` [compound 44, [(3S)-3-(Dimethylamino)pyrrolidin-1-yl][2-(1-methyl-1H-pyrazol-4-yl)-6-(morpholin-4-yl)-9H-purin-8-yl]methanone], with 76 nM. `CCOC(=O)CN1CCN(C(=O)c2nc3c(N4CCOCC4)nc(-c4cnn(C)c4)nc3[nH]2)CC1` [compound 45, Ethyl (4-{[2-(1-methyl-1H-pyrazol-4-yl)-6-(morpholin-4-yl)-9H-purin-8-yl]carbonyl}piperazin-1-yl)acetate]: the IC50 turned out to be 48 nM. Then `CN1CCN(C(=O)c2nc3c(N4CCOCC4)nc(-c4cnn(C)c4)nc3[nH]2)CC1` [compound 46, (4-Methylpiperazin-1-yl)[2-(1-methyl-1H-pyrazol-4-yl)-6-(morpholin-4-yl)-9H-purin-8-yl]methanone], with 69 nM. For `CN1CCC(NC(=O)c2nc3c(N4CCOCC4)nc(-c4cnn(C)c4)nc3[nH]2)CC1` [compound 47, N-(1-Methylpiperidin-4-yl)-2-(1-methyl-1H-pyrazol-4-yl)-6-(morpholin-4-yl)-9H-purine-8-carboxamide] the value was 139 nM; for `CN(C)C(=O)c1nc2c(N3CCOCC3)nc(-c3cnn(C)c3)nc2[nH]1` [compound 48, N,N-Dimethyl-2-(1-methyl-1H-pyrazol-4-yl)-6-(morpholin-4-yl)-9H-purine-8-carboxamide], 76 nM. Then `Cn1cc(-c2nc(N3CCOCC3)c3nc(C(=O)NC4CCN(Cc5ccccc5)CC4)[nH]c3n2)cn1` [compound 49, N-(1-Benzylpiperidin-4-yl)-2-(1-methyl-1H-pyrazol-4-yl)-6-(morpholin-4-yl)-9H-purine-8-carboxamide], with 62 nM; and `Cn1cc(-c2nc(N3CCOCC3)c3nc(C(=O)N4CCC(CC(=O)O)CC4)[nH]c3n2)cn1` [compound 50, (1-{[2-(1-Methyl-1H-pyrazol-4-yl)-6-(morpholin-4-yl)-9H-purin-8-yl]carbonyl}piperidin-4-yl)acetic acid], with 205 nM; and `CCOC(=O)CC1CCN(C(=O)c2nc3c(N4CCOCC4)nc(-c4cnn(C)c4)nc3[nH]2)CC1` [compound 51, Ethyl (1-{[2-(1-methyl-1H-pyrazol-4-yl)-6-(morpholin-4-yl)-9H-purin-8-yl]carbonyl}piperidin-4-yl)acetate], with 56 nM.

Take `COCCNC(=O)c1nc2c(N3CCOCC3)nc(-c3cnn(C)c3)nc2[nH]1` [compound 52, N-(2-Methoxyethyl)-2-(1-methyl-1H-pyrazol-4-yl)-6-(morpholin-4-yl)-9H-purine-8-carboxamide]: the IC50 came to 231 nM.

`Cn1cc(-c2nc(N3CCOCC3)c3nc(C(=O)N4CCCCC4)[nH]c3n2)cn1` [compound 53, [2-(1-Methyl-1H-pyrazol-4-yl)-6-(morpholin-4-yl)-9H-purin-8-yl](piperidin-1-yl)methanone]: the concentration for half-maximal inhibition (IC50) was 88 nM. Turning to `CN(C)C1CCN(C(=O)c2nc3c(N4CCOCC4)nc(-c4cnn(C)c4)nc3[nH]2)CC1` [compound 57, [4-(Dimethylamino)piperidin-1-yl][2-(1-methyl-1H-pyrazol-4-yl)-6-(morpholin-4-yl)-9H-purin-8-yl]methanone], the half-maximal inhibitory concentration (IC50) is 68 nM. As for `CCN(CCN1CCOCC1)C(=O)c1nc2c(N3CCOCC3)nc(-c3cnn(C)c3)nc2[nH]1` [compound 59, N-ethyl-2-(1-methyl-1H-pyrazol-4-yl)-6-(morpholin-4-yl)-N-[2-(morpholin-4-yl)ethyl]-9H-purine-8-carboxamide], the IC50 was 206 nM. For `CN(CCN1CCOCC1)C(=O)c1nc2c(N3CCOCC3)nc(-c3cnn(C)c3)nc2[nH]1` [compound 60, N-methyl-2-(1-methyl-1H-pyrazol-4-yl)-6-(morpholin-4-yl)-N-[2-(morpholin-4-yl)ethyl]-9H-purine-8-carboxamide] the value was 159 nM; for `Cn1cc(-c2nc(N3CCOCC3)c3nc(C(=O)N4CC[C@H](O)C4)[nH]c3n2)cn1` [compound 62, [(3S)-3-Hydroxypyrrolidin-1-yl][2-(1-methyl-1H-pyrazol-4-yl)-6-(morpholin-4-yl)-9H-purin-8-yl]methanone], 61 nM; for `Cn1cc(-c2nc(N3CCOCC3)c3nc(C(=O)NCCCN4CCOCC4)[nH]c3n2)cn1` [compound 63, 2-(1-Methyl-1H-pyrazol-4-yl)-6-(morpholin-4-yl)-N-[3-(morpholin-4-yl)propyl]-9H-purine-8-carboxamide], 21 nM. In the case of `Cc1n[nH]cc1-c1nc(N2CCOCC2)c2nc(C(=O)N3CCC(N4CCOCC4)CC3)[nH]c2n1` [compound 66, [2-(3-Methyl-1H-pyrazol-4-yl)-6-(morpholin-4-yl)-9H-purin-8-yl][4-(morpholin-4-yl)piperidin-1-yl]methanone], the concentration for half-maximal inhibition (IC50) was 21 nM. Regarding `CCN(CCCN1CCOCC1)C(=O)c1nc2c(N3CCOCC3)nc(-c3cnn(C)c3)nc2[nH]1` [compound 69, N-ethyl-2-(1-methyl-1H-pyrazol-4-yl)-6-(morpholin-4-yl)-N-[3-(morpholin-4-yl)propyl]-9H-purine-8-carboxamide], the IC50 turned out to be 61 nM.
